{
  "source": "paper PMC11215077",
  "about": "“Antiviral activity of temporin-1CEb analogues against gingival infection with herpes simplex virus type 1” (Frontiers in Oral Health, 2024)",
  "key": {"[1]": {"assay": "Confocal colocalization of CFS-labelled conjugate with HS on TIGKs cells", "assay_type": "cell-based", "conditions": "CFS-labelled conjugate 15 μg/ml, 30 min at 4°C, average ± SEM", "method": "To examine the colocalization of HS on the cell surface with tested peptide conjugate we treated TIGKs cells with CFS stained CPP1-PEG-LK6 (15 μg/ml) for 30 min at 4°C. Then cells were washed with cold PBS and fixed with 3.7% formaldehyde for 30 min. Afterwards, TIGKs cells were stained with primary antibodies (1:100; rat anti-HS, Abcam) for 2 h at room temperature. The cells were then incubated with secondary antibodies (1:1,000; goat anti-rat conjugated with Alexa Fluor 568, Cell Signaling) and with Alexa Fluor 633 Phalloidin. Next, the coverslips were placed on glass slide with ProLong Antifade Mounting Medium with DAPI and visualized using a confocal laser scanning microscope (LSM 880; Zeiss)."}, "HSV-1 [2]": {"tested_on": "HSV-1", "assay": "Virion integrity assay", "assay_type": "cell-based, herpes simplex virus type 1", "conditions": "virions pre-treated 1 h at RT with 15 μg/ml, then TIGKs infected; qPCR up to 48 h p.i.; compared to Triton X-100", "method": "HSV-1 samples were incubated with DAL-PEG-LK6 and CPP1-PEG-LK6 (15 μg/ml) for 1 h at room temperature on a shaker. Additionally, Triton X-100 was used as a positive control. Next, the mixtures were diluted to decrease tested molecules concentrations (0.65 ng/ml) and were used to infect TIGKs monolayers. After 48 h of incubation, supernatants were collected, and the quantity of HSV-1 DNA copies was determined using qPCR.\nViral DNA was isolated from the conditioned media or the apical washes of inserts (OTG model) using Viral DNA/RNA Isolation Kit (A&A Biotechnology). The virus yield assessed by quantitative real-time PCR (qPCR). The reaction was carried out in a CFX96 Touch Real-Time PCR Detection System (Bio-Rad), in a 10 μl reaction mixture consisting of TaqMan^TM Fast Advanced Master Mix, TaqMan^TM Microbe Detection assay against HSV-1 (Vi04230116_s1) and 1 μl of viral DNA. The temperature profile was 10 s at 95°C, followed by 40 cycles of 3 s at 95°C and 20 s at 60°C. DNA quantification standards were prepared. In summary, a fragment of viral DNA was amplified using the primers listed above and cloned into the pTZ57R/T plasmid using the InsTAclone PCR cloning kit. […] The number of copies per mL was estimated after the concentration of linearized DNA was assessed spectrophotometrically."}, "[3]": {"assay": "Azure A metachromatic assay", "assay_type": "binding", "conditions": "HS 0.2 mg/ml, Azure A 23 μg/ml, peptide 1–300 μg/ml, 15 min at RT", "method": "The possible interaction of peptide conjugate with HS was investigated by incubation the mixtures containing a constant concentration of HS (0.2 mg/ml, Sigma Aldrich) and solutions of CPP1-PEG-LK6 at different concentrations (1–300 μg/ml). Next, the mixtures were shaken for 15 min at room temperature. […] Azure A, a cationic dye when binding to heparin and/or HS changes its adsorption spectrum ([35])."}, "[4]": {"tested_on": "HSV-1 clinical strains (294.1, 615.9, C08R, C10B)", "assay": "Viral replication assay with HSV-1 clinical strains", "assay_type": "cell-based, herpes simplex virus type 1", "conditions": "15 μg/ml, qPCR 48 h p.i.", "method": "HSV-1 strain F was acquired from American Type Culture Collection (VR 733). Clinical isolates of HSV-1 (294.1, 615.9, C08R, C10B) were kindly provided by Donald M. Coen from Department of Biological Chemistry and Molecular Pharmacology, Harvard Medical School, Boston. HSV-1 strains were propagated and titrated on Vero cells.\nVero E6 or TIGKs cells were seeded in 12-well plates and cultured for 48 h. Next, the medium was removed and replaced with a fresh medium supplemented with DAL-PEG-LK6 and CPP1-PEG-LK6 (15 μg/ml). After 30 min of incubation at 37°C, cells were infected with HSV-1 at TCID50 400 /ml or treated with mock. After 2 h of infection at 37°C, unbound viral particles were removed by washing with PBS, and culture media supplemented with peptide conjugates were applied. Following 48 h of incubation, media were collected, and the quantity of HSV-1 DNA copies was assessed using titration and qPCR.\n(§1) Viral DNA was isolated from the conditioned media or the apical washes of inserts (OTG model) using Viral DNA/RNA Isolation Kit (A&A Biotechnology). The virus yield assessed by quantitative real-time PCR (qPCR). […] DNA quantification standards were prepared. […] The number of copies per mL was estimated after the concentration of linearized DNA was assessed spectrophotometrically."}, "HSV-1 [5]": {"tested_on": "HSV-1", "assay": "Attachment (adsorption) assay in TIGKs cells", "assay_type": "cell-based, herpes simplex virus type 1", "conditions": "15 μg/ml present only during infection, 2 h at 4°C, 48 h", "method": "HSV-1 stocks were generated by infecting Vero E6 cells. Cells were lysed at 48 h p.i. by two freeze-thaw cycles. The virus containing fluid was aliquoted and stored at −80°C. A control Vero E6 cell lysate from mock-infected cells was prepared in the same manner as the virus stock. Virus yield was assessed by virus titration on fully confluent Vero E6 cells in 96-well plates, according to the method of Reed & Muench ([32]). Plates were incubated at 37°C for 48 h and the occurrence of a cytopathic effect was scored using an inverted microscope, and TCID50 (50% tissue culture infection dose) was calculated.\nTIGKs cells were seeded in 12-well plates and cultured for 48 h. Next, keratinocytes were infected with HSV-1 (TCID50 400 /ml) or treated with mock in the presence of DAL-PEG-LK6 or CPP1-PEG-LK6 (15 μg/ml) for 2 h at 4°C. […] Next, samples were collected, and viral yield was determined using titration and qPCR.\nas §1"}},
  "note": "Square brackets hold non-standard residues; d marks the D form. Peptide text beside a SMILES is read from it. AEEA = NCCOCCOCC(=O)O",
  "data": [
    {"smiles": "CC[C@H](C)[C@H](NC(=O)COCCOCCNC(=O)[C@@H](NC(=O)[C@H](CC(C)C)NC(=O)[C@H](Cc1ccc(O)cc1)NC(=O)[C@@H](NC(=O)[C@H](Cc1ccccc1)NC(=O)[C@@H]1CCCN1)C(C)C)[C@@H](C)CC)C(=O)N[C@@H](CCCCN)C(=O)N[C@@H](CCCCN)C(=O)N[C@H](C(=O)N[C@@H](CC(C)C)C(=O)N[C@@H](CO)C(=O)N[C@@H](CCCCN)C(=O)N[C@H](C(=O)N[C@@H](CCCCN)C(=O)N[C@@H](CCCCN)C(=O)N[C@@H](CC(C)C)C(=O)N[C@@H](CC(C)C)C(=O)N[C@@H](CCCCN)C(N)=O)[C@@H](C)CC)[C@@H](C)CC", "note": "[CPP1-PEG-LK6] (H-PFVYLI[AEEA]IKKILSKIKKLLK-NH2)", "values": [
      {"measurement": "colocalization with HS, Manders overlap coefficient", "setting": "[1]", "value": "0.93 ± 0.01"},
      {"measurement": "colocalization with HS, Pearson's correlation", "setting": "[1]", "value": "0.82 ± 0.02"},
      {"measurement": "effect on HSV-1 virion integrity", "setting": "HSV-1 [2]", "value": "no inhibitory effect"},
      {"measurement": "interaction with heparan sulfate (Azure A release, absorbance at 630 nm)", "setting": "[3]", "value": "releases Azure A from HS"},
      {"measurement": "activity against HSV-1 clinical strains", "setting": "[4]; Figure 4", "value": "inhibits all selected HSV-1 clinical strains"},
      {"measurement": "inhibition of replication of clinical strains", "setting": "[4]; all tested strains: 294.1, C08R (drug-sensitive), 615.9, C10B (drug-resistant)", "value": "~3", "unit": "logs"},
      {"measurement": "CC50 at 48 h", "setting": "in vitro", "value": 23.4, "unit": "µg/mL"},
      {"measurement": "decrease in viral yield, attachment assay, qPCR", "setting": "HSV-1 [5]; Figure 2D", "value": "~95", "unit": "%"},
      {"measurement": "decrease in viral titer, attachment assay, titration", "setting": "HSV-1 [5]; Figure 2E", "value": "~97", "unit": "%"}
    ]}
  ]
}
